In one assay the target is muscarinic receptors. Nature of the assay: 3H-oxotremorine-M binding assay. Particulars: 3 nM 3H-oxotremorine-M, rat cerebral cortical membranes, 15 min 25° C.; read-out: Inhibition of 3H-Oxo. As for the experimental part:
Each compound was tested to determine the affinity of the compound for the muscarinic receptors using the following procedure.
For each in vitro binding, male Sprague-Dawley (Harlan Sprague-Dawley, Indianapolis, Ind.) rats weighing from about 100 to about 150 grams each were sacrificed by decapitation. The brains were quickly removed and the cerebral cortex were dissected from the brain. The cerebral cortex tissue was homogenized in 10 volumes of 0.32 M sucrose and […] about 10 minutes at about 1000 x g. The supernatant was centrifuged at about 12,000 x g for about 10 minutes and the resulting pellet was resuspended in 20 mM tris-Cl, pH 7.4. The resuspended pellet was centrifuged again for about 10 minutes at about 50,000 x g. The resulting homogenate was preincubated for about 10 minutes at about 25° C. and centrifuged again for about 10 minutes at about 50,000 x g. The pellet was resuspended at 1 gram of pellet per 3 ml of buffer and frozen at about -80° C. until used.
The aforementioned homogenates mixture was incubated for about 15 minutes at about 25° C. and then the homogenates were filtered through glass filters (Whatman, GF/C) with vacuum. The filters were washed 3 times with about 2 ml of cold tris-Cl buffer, and placed in scintillation vials containing about 10 ml of scintillation fluid (Ready Protein+, Beckman, Fullerton, Calif.). Radioactivity trapped on the filters was determined by liquid scintillation spectrometry. Nonspecific binding was determined using 1 μM atropine. […] DeLean, A. et al. Am.

For a further assay, the system named is Rats. The assay can be described thus: Conditioned avoidance behavior in rats. The class given is in vivo, rat. Particulars: screening dose 3.0 mg/kg s.c. 30 min before session. The source says: In a conditioned avoidance test, animals learn to respond during a conditioned stimulus in order to avoid mild shock presentation. A response during the conditioned stimulus is termed an avoidance respone, a response during shock is termed an escape response; a response failure is when the animal fails to respond during either the conditioned stimlus or the shock presentation and is indicative of motor impairment. […] Antipsychotic drugs decrease the percentage of avoidance responses without interfering with the ability of the animal to respond since the animals do emit escape responses. The percentage of response failures is considered a measure of motor impairment.
Rats were required to press a response lever in an experimental chamber in order to avoid or escape foot-shock. Each experimental session consisted of 50 trials. During each trial, the chamber was illuminated and a tone presented for a maximum of 10 sec. A response during the tone immediately terminated the tone and the houselight, ending the trial. In the absence of a response during the tone alone, tone+foot-shock (2.0 mA) was presented for a maximum of 10 sec. A response during shock presentation immediately terminated the shock, the tone and the houselight, ending the trial.
For drug screening, a dose of 3.0 mg/kg was administered s.c. 30 min before the start of the experimental session.

The structures appear in SMILES notation. Counter-ions that a name gives are not always drawn.

`CCOc1nsnc1[C@H]1CN2CCC[C@H]1C2` (relative stereo) [Compound 19, Exo-6-(3-ethoxy-1,2,5-thiadiazol-4-yl)-1-azabicyclo[3.2.1]octane oxalate]: the IC50 at muscarinic receptors worked out at 1.2 nM. Further, in the assay with Rats, the “Conditioned Avoidance % Avoidance Responses” value is recorded as 73%.
The like results for `CCCCCCSc1nsnc1[C@H]1CN2CCC[C@H]1C2` (relative stereo) [Compound 29, Exo-6-(3-hexylthio-1,2,5-thiadiazol-4-yl)-1-azabicyclo[3.2.1]octane oxalate] were, in that order, 1.2 nM and 29%.
For the compound `CCCCSc1nsnc1[C@H]1CN2CCC[C@H]1C2` (relative stereo) [Compound 30, Exo-6-(3-butylthio-1,2,5-thiadiazol-4-yl)-1-azabicyclo[3.2.1]octane oxalate], the IC50 on muscarinic receptors came to 0.4 nM. The “Conditioned Avoidance % Avoidance Responses” value in the assay with Rats was 32%.
Regarding `CCCCCSc1nsnc1[C@H]1CN2CCC[C@H]1C2` (relative stereo) [Compound 31, Exo-6-(3-pentylthio-1,2,5-thiadiazol-4-yl)-1-azabicyclo[3.2.1]octane oxalate], the IC50 at muscarinic receptors turned out to be 1.8 nM. In addition, in the assay on Rats, the “Conditioned Avoidance % Avoidance Responses” value was found to be 1%.
With `CCSc1nsnc1[C@H]1CN2CCC[C@H]1C2` (relative stereo) [Compound 32, Exo-6-(3-ethylthio-1,2,5-thiadiazol-4-yl)-1-azabicyclo[3.2.1]octane oxalate], the IC50 at muscarinic receptors was found to be 1.3 nM. In addition, in the assay on Rats, the “Conditioned Avoidance % Avoidance Responses” value worked out at 46%.
Take `CCCSc1nsnc1[C@H]1CN2CCC[C@H]1C2` (relative stereo) [Compound 58, Exo-6-(3-propylthio-1,2,5-thiadiazol-4-yl)-1-azabicyclo[3.2.1]octane oxalate]: the IC50 at muscarinic receptors was 0.8 nM. In the assay on Rats, the “Conditioned Avoidance % Avoidance Responses” value amounted to 41%.
In the case of `CCCCCOc1nsnc1[C@H]1CN2CCC[C@H]1C2` (relative stereo) [Compound 59, Exo-6-(3-pentyloxy-1,2,5-thiadiazol-4-yl)-1-azabicyclo[3.2.1]octane oxalate], the IC50 at muscarinic receptors turned out to be 1 nM. Further, the “Conditioned Avoidance % Avoidance Responses” value in the assay on Rats is recorded as 12%.
Regarding `CSc1nsnc1[C@H]1CN2CCC[C@H]1C2` (relative stereo) [Compound 74, Exo-6-(3-methylthio-1,2,5-thiadiazol-4-yl)-1-azabicyclo[3.2.1]octane oxalate], the IC50 on muscarinic receptors is 1.4 nM. The “Conditioned Avoidance % Avoidance Responses” value with Rats was 22%.
For the compound `CC(C)CCCSc1nsnc1[C@H]1CN2CCC[C@H]1C2` (relative stereo) [Compound 76, Exo-6-(3-isohexylthio-1,2,5-thiadiazol-4-yl)-1-azabicyclo[3.2.1]octane oxalate], on muscarinic receptors, the IC50 is 7.7 nM. The “Conditioned Avoidance % Avoidance Responses” value in the assay with Rats amounted to 28%.
As to `CC(C)CCSc1nsnc1[C@H]1CN2CCC[C@H]1C2` (relative stereo) [Compound 77, Exo-6-(3-isopentylthio-1,2,5-thiadiazol-4-yl)-1-azabicyclo[3.2.1]octane], the IC50 on muscarinic receptors is 2.7 nM. In the assay with Rats, the “Conditioned Avoidance % Avoidance Responses” value is 85%.
Turning to `N#Cc1ccc(CSc2nsnc2[C@H]2CN3CCC[C@H]2C3)cc1` (relative stereo) [Compound 82, Exo-6-(3-(4-cyanobenzylthio)-1,2,5-thiadiazol-4-yl)-1-azabicyclo[3.2.1]octane oxalate], the IC50 on muscarinic receptors came to 1.3 nM. Besides, the “Conditioned Avoidance % Avoidance Responses” value with Rats came to 24%.
In the same order, the values of `CCCOc1nsnc1[C@H]1CN2CCC[C@H]1C2` (relative stereo) [Compound 119, Exo-6-(3-propoxy-1,2,5-thiadiazol-4-yl)-1-azabicyclo[3.2.1]octane oxalate] are 0.9 nM and 29%.
In the same order, the values of `CCCCOc1nsnc1[C@H]1CN2CCC[C@H]1C2` (relative stereo) [Compound 120, Exo-6-(3-butoxy-1,2,5-thiadiazol-4-yl)-1-azabicyclo[3.2.1]octane oxalate] are 0.9 nM and 27%.
With `CCCCCCOc1nsnc1[C@H]1CN2CCC[C@H]1C2` (relative stereo) [Compound 122, Exo-6-(3-hexyloxy-1,2,5-thiadiazol-4-yl)-1-azabicyclo[3.2.1]octane oxalate], the IC50 at muscarinic receptors came to 2.1 nM. In the assay with Rats, the “Conditioned Avoidance % Avoidance Responses” value is reported as 1%.
Turning to `c1ccc(OCCSc2nsnc2[C@H]2CN3CCC[C@H]2C3)cc1` (relative stereo) [Compound 133, Exo-6-(3-(2-phenoxyethylthio)-1,2,5-thiadiazol-4-yl)-1-azabicyclo[3.2.1]octane oxalate], the IC50 on muscarinic receptors was 1.3 nM. Moreover, the “Conditioned Avoidance % Avoidance Responses” value with Rats turned out to be 1%.
As to `CCCCSc1nsnc1C1CN2CCC1CC2.O=C(O)C(O)C(O)C(=O)O` (single isomer, unassigned) [Compound 56, (+) 3-(3-Butylthio-1,2,5-thiadiazol-4-yl)-1-azabicyclo[2.2.2]octane (-)D-tartrate], the IC50 at muscarinic receptors worked out at 0.4 nM. Besides, the “Conditioned Avoidance % Avoidance Responses” value in the assay on Rats was found to be 6%.
`CCCCSc1nsnc1C1CN2CCCC1C2` (single isomer, unassigned) [Compound 111, (-)-Exo-6-(3-butylthio-1,2,5-thiadiazol-4-yl)-1-azabicyclo[3.2.1]octane (+) L-tartrate]: the IC50 on muscarinic receptors amounted to 1 nM. For the same compound, in the assay with Rats (3 mg/kg), the “Conditioned Avoidance % Avoidance Responses” value is listed as 8%.
The like results for `CCCCSc1nsnc1C1CN2CCCC1C2` (single isomer, unassigned) [Compound 112, (+)-Exo-6-(3-butylthio-1,2,5-thiadiazol-4-yl)-1-azabicyclo[3.2.1]octane (-) D-tartrate] were, in that order, 0.6 nM and 2%.
Turning to `CCCSc1nsnc1C1CN2CCCC1C2` (single isomer, unassigned) [Compound 114, (+)-Exo-6-(3-propylthio-1,2,5-thiadiazol-4-yl)-1-azabicyclo[3.2.1]octane (-) D-tartrate], the IC50 at muscarinic receptors was found to be 0.45 nM. Besides, the “Conditioned Avoidance % Avoidance Responses” value in the assay with Rats (3 mg/kg) came out at 39%.
In the same order, the values of `CCCSc1nsnc1C1CN2CCCC1C2` (single isomer, unassigned; (+)) [Compound 113, (+)-Exo-6-(3-propylthio-1,2,5-thiadiazol-4-yl)-1-azabicyclo[3.2.1]octane (+) L-tartrate] are 0.8 nM and 19%.
With `FC(F)(F)CCCSc1nsnc1C1CN2CCCC1C2` (single isomer, unassigned; (+)) [Compound 167, (+)-Exo-6-(3-(4,4,4-trifluorobutylthio)-1,2,5-thiadiazol-4-yl)-1-azabicyclo-[3.2.1]octane oxalate], the IC50 at muscarinic receptors turned out to be 0.76 nM. Besides, in the assay on Rats (3 mg/kg), the “Conditioned Avoidance % Avoidance Responses” value worked out at 56%.
Consider `FC(F)(F)CCCSc1nsnc1C1CN2CCCC1C2` (single isomer, unassigned; (-)) [Compound 130, (-)-Exo-6-(3-(4,4,4-trifluoro-1-butylthio)-1,2,5-thiadiazol-4-yl)-1-azabicyclo[3.2.1]octane oxalate], for which the IC50 at muscarinic receptors was determined as 1.8 nM. In addition, the “Conditioned Avoidance % Avoidance Responses” value with Rats (3 mg/kg) was 43%.
For `CCOc1nsnc1C1CN2CCC1CC2.O=C(O)/C=C/C(=O)O` (stereo not shown) [Compound 9, 3-(3-Ethoxy-1,2,5-thiadiazol-4-yl)-1-azabicyclo[2.2.2]octane fumarate], on muscarinic receptors, the IC50 came out at 2.1 nM. Besides, the “Conditioned Avoidance % Avoidance Responses” value in the assay on Rats was 65%.
Turning to `CCCCCCOc1nsnc1C1CN2CCC1CC2.O=C(O)/C=C/C(=O)O` (stereo not shown) [Compound 11, 3-(3-Hexyloxy-1,2,5-thiadiazol-4-yl)-1-azabicyclo[2.2.2]octane fumarate], the IC50 at muscarinic receptors worked out at 6 nM. Besides, in the assay with Rats, the “Conditioned Avoidance % Avoidance Responses” value is recorded as 11%.
Take `CCCCSc1nsnc1C1CN2CCC1CC2.O=C(O)/C=C/C(=O)O` (stereo not shown) [Compound 13, 3-(3-Butylthio-1,2,5-thiadiazol-4-yl)-1-azabicyclo[2.2.2]octane fumarate]: the IC50 on muscarinic receptors worked out at 1.9 nM. Moreover, the “Conditioned Avoidance % Avoidance Responses” value in the assay on Rats is listed as 18%.
The like results for `CCCCOc1nsnc1C1CN2CCC1CC2.O=C(O)C(=O)O` (stereo not shown) [Compound 46, 3-(3-Butoxy-1,2,5-thiadiazol-4-yl)-1-azabicyclo[2.2.2]octane oxalate] were, in that order, 1.6 nM and 30%.

For the origin of these results see patent publication US5663182A, “Antipsychotic method” (priority 1996, dated 1997).
